Among the data in patent publication US10501449B2 (priority 2018, dated 2019) are IC50 values, retold here.

Chain of hROMK (human Kir1.1) (P48048 whole entry): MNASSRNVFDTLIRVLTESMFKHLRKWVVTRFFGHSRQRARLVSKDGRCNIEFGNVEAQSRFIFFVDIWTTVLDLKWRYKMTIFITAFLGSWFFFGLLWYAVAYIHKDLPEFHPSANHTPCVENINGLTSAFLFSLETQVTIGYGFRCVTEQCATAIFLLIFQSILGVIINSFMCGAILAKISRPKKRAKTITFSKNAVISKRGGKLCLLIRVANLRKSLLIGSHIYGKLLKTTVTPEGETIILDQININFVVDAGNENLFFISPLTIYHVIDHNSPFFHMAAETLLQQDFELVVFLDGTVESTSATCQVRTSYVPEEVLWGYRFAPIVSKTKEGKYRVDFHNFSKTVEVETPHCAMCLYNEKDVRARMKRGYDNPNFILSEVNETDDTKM

This test addresses hROMK (human Kir1.1) (Homo sapiens (Human), UniProt P48048). Put plainly: cell-based. The note with it: CHO T-Rex hROMK stable cell line; thallium flux; 10-point concentration response curve; read-out: Human ROMK Th Flux IC50.
For orientation: IC50 means the concentration needed to halve the response being measured. `Cc1cc(-c2nc(CN3CC[C@@H](O)[C@H](c4ccc5c(c4C)COC5=O)C3)co2)ncc1C#N` [Example 132-I, 6-(4-(((3R,4R)-4-hydroxy-3-(4-methyl-1-oxo-1,3-dihydroisobenzofuran-5-yl)piperidin-1-y)methyl)oxazol-2-yl)-4-methylnicotinonitrile]: the IC50 worked out at 0.17 µM.

`Cc1c([C@@H]2CN(Cc3cnn(-c4ccc5oc(=O)n(C)c5c4C)c3)CCN2)ccc2c1COC2=O` [Example 135-I, (R)-3,4-dimethyl-5-(4-((3-(4-methyl-1-oxo-1,3-dihydroisobenzofuran-5-yl)piperazin-1-yl)methyl)-1H-pyrazol-1-yl)benzo[d]oxazol-2(3H)-one]: the IC50 was found to be 0.17 µM.

Consider `Cc1c([C@@H]2CN(Cc3ccc(-n4cc(C(N)=O)cn4)nc3)CCN2)ccc2c1COC2=O` [Example 138-I, (R)-1-(5-((3-(4-methyl-1-oxo-1,3-dihydroisobenzofuran-5-yl)piperazin-1-yl)methyl)pyridin-2-yl)-1H-pyrazole-4-carboxamide], for which the IC50 was 0.67 µM.

With `Cc1cn(-c2cc(C(F)(F)F)c(CN3CCN[C@H](c4ccc5c(c4C)COC5=O)C3)cn2)cn1` [Example 147-I, (R)-4-methyl-5-(4-((6-(4-methyl-1H-imidazol-1-yl)-4-(trifluoromethyl)pyridin-3-yl)methyl)piperazin-2-yl)isobenzofurna-1(3H)-one], the IC50 is 0.087 µM.

On to `Cc1cc(N2CCOC2=O)cc(-n2cc(CN3C[C@@H](c4ccc5c(c4C)COC5=O)N[C@@H](C)C3)cn2)c1` [Example 152-I, 3-(3-methyl-5-(4-(((3S,5R)-3-methyl-5-(4-methyl-1-oxo-1,3-dihydroisobenzofuran-5-yl)piperazin-1-yl)methyl)-1H-pyrazol-1-yl)phenyl)oxazolidin-2-one], for which the IC50 was determined as 0.49 µM.

With `Cc1c([C@@H]2CN(Cc3cnn(-c4ccc(S(C)(=O)=O)cn4)c3)C[C@H](C)N2)ccc2c1COC2=O` [Example 161-I, 4-methyl-5-((2R,6S)-6-methyl-4-((1-(5-(methylsulfonyl)pyridin-2-yl)-1H-pyrazol-4-yl)methyl)piperazin-2-yl)isobenzofuran-1(3H)-one], the IC50 is 0.17 µM.

In the case of `COc1cc(-n2cnc(CN3CC[C@@H](O)[C@H](c4ccc5c(c4C)COC5=O)C3)c2)ccc1C#N` [Example 162-I, 4-(4-(((3R,4R)-4-hydroxy-3-(4-methyl-1-oxo-1,3-dihydroisobenzofuran-5-yl)piperidin-1-yl)methyl)-1H-imidazol-1-yl)-2-methoxybenzonitrile], the IC50 turned out to be 0.26 µM.

With `COc1cc(-n2cc(CN3C[C@@H](c4ccc5c(c4C)COC5=O)N[C@@H](C)C3)n(C(C)C)c2=O)ncc1C#N` [Example 172-I, 6-(3-isopropyl-4-(((3S,5R)-3-methyl-5-(4-methyl-1-oxo-1,3-dihydroisobenzofuran-5-yl)piperazin-1-yl)methyl)-2-oxo-2,3-dihydro-1H-imidazol-1-yl)-4-methoxynicotinonitrile], the IC50 came to 0.16 µM.

For the compound `Cc1c([C@@H]2CN(Cc3ccc(-c4ccnc(N5CCOC5=O)c4)nc3)C[C@H](C)N2)ccc2c1COC2=O` [Example 174-I, 3-(5-(((3S,5R)-3-methyl-5-(4-methyl-1-oxo-1,3-dihydroisobenzofuran-5-yl)piperazin-1-yl)methyl)-[2,4′-bipyridin]-2′-yl)oxazolidin-2-one], the IC50 amounted to 0.22 µM.

With `Cc1cc(-n2nnc(CN3C[C@@H](c4ccc5c(c4C)COC5=O)N[C@@H](C)C3)c2C)ncc1C#N` [Example 176-I, 4-methyl-6-(5-methyl-4-(((3S,5R)-3-methyl-5-(4-methyl-1-oxo-1,3-dihydroisobenzofuran-5-yl)piperazin-1-yl)methyl)-1H-1,2,3-triazol-1-yl)nicotinonitrile], the IC50 came out at 0.12 µM.

Regarding `Cc1c([C@@H]2CN(Cc3cnn(-c4ccnc5c4ccn5C)c3)CCO2)ccc2c1COC2=O` [Example 177-I, (R)-4-methyl-5-(4-((1-(1-methyl-1H-pyrrolo[2,3-b]pyridin-4-yl)-1H-pyrazol-4-yl)methyl)morpholin-2-yl)isobenzofuran-1(3H)-one], the IC50 worked out at 0.5 µM.

With `Cc1ccc(-n2cnc(CN3C[C@@H](c4ccc5c(c4C)COC5=O)N[C@@H](C)C3)c2)cc1` [Example 178-I, 4-methyl-5-((2R,6S)-6-methyl-4-((1-(p-tolyl)-1H-imidazol-4-yl)methyl)piperazin-2-yl)isobenzofuran-1(3h)-one], the IC50 was determined as 0.22 µM.

For `Cc1cnccc1-n1cnc(CN2C[C@@H](c3ccc4c(c3C)COC4=O)N[C@@H](C)C2)c1` [Example 179-I, 4-methyl-5-((2R,6S)-6-methyl-4-((1-(3-methylpyridin-4-yl)-1H-imidazol-4-yl)methyl)piperazin-2-yl)isobenzofuran-1(3H)-one], the IC50 is 0.36 µM.

In the case of `Cc1ccc(-n2cnc(CN3C[C@@H](c4ccc5c(c4C)COC5=O)N[C@@H](C)C3)c2)cn1` [Example 180-I, 4-methyl-5-((2R,6S)-6-methyl-4-((1-(6-methylpyridin-3-yl)-1H-imidazol-4-yl)methyl)piperazin-2-yl)isobenzofuran-1(3H)-one], the IC50 is 0.077 µM.

As to `Cc1cc(-n2cnc(CN3C[C@@H](c4ccc5c(c4C)COC5=O)N[C@@H](C)C3)c2)cc(C)n1` [Example 181-I, 5-((2R,6S)-4-((1-(2,6-dimethylpyridin-4-yl)-1H-imidazol-4-yl)methyl)-6-methylpiperazin-2-yl)-4-methylisobenzofuran-1(3H)-one], the IC50 turned out to be 0.15 µM.

In the case of `Cc1c([C@@H]2CN(Cc3cn(-c4ccc5c(c4)OC(F)(F)O5)cn3)C[C@H](C)N2)ccc2c1COC2=O` [Example 182-I, 5-((2R,6S)-4-((1-(2,2-difluorobenzo[d][1,3]dioxol-5-yl)-1H-imidazol-4-yl)methyl)-6-methylpiperazin-2-yl)-4-methylisobenzofuran-1(3H)-one], the IC50 was 0.26 µM.

As to `Cc1cc(-c2cnc(CN3CCN[C@H](c4ccc5c(c4C)COC5=O)C3)nc2)ncc1C#N` [Example 183-I, (R)-4-methyl-6-(2-((3-(4-methyl-1-oxo-1,3-dihydroisobenzofuran-5-yl)piperazin-1-yl)methyl)pyrimidin-5-yl)nicotinonitrile], the IC50 was determined as 0.18 µM.

Consider `Cc1cc(-n2cc(CN3CCN[C@H](c4ccc5c(c4C)COC5=O)C3)nn2)nc(C)c1C#N` [Example 186-I, (R)-2,4-dimethyl-6-(4-((3-(4-methyl-1-oxo-1,3-dihydroisobenzofuran-5-yl)piperazin-1-yl)methyl)-1H-1,2,3-triazol-1-yl)nicotinonitrile], for which the IC50 is 0.018 µM.

For `Cc1c([C@@H]2CN(Cc3cnc(-n4c(C)nnc4C)nc3)CCN2)ccc2c1COC2=O` [Example 201-I, (R)-5-(4-((2-(3,5-dimethyl-4H-1,2,4-triazol-4-yl)pyrimidn-5-yl)methyl)piperazin-2-yl)-4-methylisobenzofuran-1(3H)-one], the IC50 amounted to 0.19 µM.

As to `Cc1c(C#N)ccnc1-n1cc(CN2C[C@@H](c3ccc4c(c3C)COC4=O)N[C@@H](C)C2)cn1` [Example 202-I, 3-methyl-2-(4-(((3S,5R)-3-methyl-5-(4-methyl-1-oxo-1,3-dihdyroisobenzofuran-5-yl)piperazin-1-yl)methyl)-1H-pyrazol-1-yl)isonicotinonitrile], the IC50 is 0.14 µM.

For the compound `Cc1cnc(-n2cc(CN3C[C@@H](c4ccc5c(c4C)COC5=O)N[C@@H](C)C3)cn2)cn1` [Example 206-I, 4-methyl-5-((2R,6S)-6-methyl-4-((1-(5-methylpyrazin-2-yl)-1H-pyrazol-4-yl)methyl)piperazin-2-yl)isobenzofuran-1(3H)-one], the IC50 amounted to 0.082 µM.

Consider `COc1ncc(-n2cc(CN3C[C@@H](c4ccc5c(c4C)COC5=O)N[C@@H](C)C3)cn2)cn1` [Example 208-I, 5-((2R,6S)-4-((1-(2-methoxypyrimidin-5-yl)-1H-pyrazol-4-yl)methyl)-6-methylpiperazin-2-yl)-4-methylisobenzofuran-1(3H)-one], for which the IC50 turned out to be 0.19 µM.

Take `Cc1ncc(-n2cc(CN3C[C@@H](c4ccc5c(c4C)COC5=O)N[C@@H](C)C3)cn2)cn1` [Example 209-I, 4-methyl-5-((2R,6S)-6-methyl-4-((1-(2-methylpyrimidin-5-yl)-1H-pyrazol-4-yl)methyl)piperazin-2-yl)isobenzofuran-1(3H)-one]: the IC50 amounted to 0.1 µM.

With `Cc1cn(-c2ncc(CN3CCO[C@H](c4ccc5c(c4C)COC5=O)C3)cn2)cn1` [Example 224-I, (R)-4-methyl-5-(4-((2-(4-methyl-1H-imidazol-1-yl)pyrimidin-5-yl)methyl)morpholin-2-yl)isobenzofuran-1(3H)-one], the IC50 worked out at 0.027 µM.

On to `Cc1cc(-n2cc(CN3CCC(=O)C(c4ccc5c(c4C)COC5=O)C3)cn2)ncc1C#N` (stereo not shown) [Example 232-I, 4-methyl-6-(4-((3-(4-methyl-1-oxo-1,3-dihydroisobenzofuran-5-yl)-4-oxopiperidin-1-yl)methyl)-1H-pyrazol-1-yl)nicotinonitrile], for which the IC50 stood at 0.48 µM.

Consider `Cc1c([C@@H]2CN(Cc3cnc(-n4cncn4)nc3)CCN2)ccc2c1COC2=O` [Example 234-I, (R)-5-(4-((2-(1H-1,2,4-triazol-1-yl)pyrimidin-5-yl)methyl)piperazin-2-yl)-4-methylisobenzofuran-1(3H)-one], for which the IC50 was 0.078 µM.

Take `Cc1c([C@@H]2CN(Cc3ccc(-n4cnc(C(F)F)c4)nc3)CCN2)ccc2c1COC2=O` [Example 235-I, (R)-5-(4-((6-(4 (difluoromethyl)-1H-imidazol-1-yl)pyridin-3-yl)methyl)piperazin-2-yl)-4-methylisobenzofuran-1(3H)-one]: the IC50 came out at 0.083 µM.

`Cc1c([C@@H]2CN(Cc3ccc(-c4ccc(=O)n(C)c4)nc3)C[C@H](C)N2)ccc2c1COC2=O` [Example 238-I, 1′-methyl-5-(((3S,5R)-3-methyl-5-(4-methyl-1-oxo-1,3-dihydroisobenzofuran-5-yl)piperazin-1-yl)methyl)-[2,3′-bipyridin]-6′(1′H)-one]: the IC50 was 0.47 µM.
